# PMC7031696 (Cell chemical biology, 2019)
# pIC50: −log10 of the molar value. Read-outs that look alike come from different tables or passages of the source.
# Columns and labels:
# [1] = system: Plasmodium falciparum 3D7-A10 parasites; assay: Stage specificity assay (8-h exposure of synchronized stages, IC50^8h); type: cell-based; settings: Plasmodium falciparum
# [2] = system: asynchronous 3D7-A10 parasite cultures; assay: Standard 72-h exposure asexual blood stage susceptibility assay (IC50^72h); type: cell-based, Plasmodium falciparum; settings: Plasmodium falciparum, 3D7, 72 h, read-out: Overall (72hr assay) Mean IC50 (IC50^72h)
# [3] = system: 3D7-MR4 trophozoite parasite-infected RBCs; assay: Metabolomic profiling (hydrophilic metabolite changes, UHPLC-MS); type: cell-based, Plasmodium falciparum
smiles,measurement,setting,value
COc1ccc(C2c3ccc4ccccc4c3Oc3ncn(CCCN(C)C)c(=N)c32)cc1 (centres unmarked) [MMV667491],pIC50,"[1]; 3D7, read-out: Early rings Mean IC50 (IC50^8h), 8-h exposure 0–8 hr, 3D7-A10, survival at 60 h",5.65
same,pIC50,"[1]; 3D7, read-out: Early trophozoites Mean IC50 (IC50^8h), 8-h exposure 16–24 hr, 3D7-A10, survival at 60 h",6.28
same,pIC50,"[1]; 3D7, read-out: Late rings Mean IC50 (IC50^8h), 8-h exposure 8–16 hr, 3D7-A10, survival at 60 h",5.90
same,pIC50,"[1]; 3D7, read-out: Late trophozoites Mean IC50 (IC50^8h), 8-h exposure 24–32 hr, 3D7-A10, survival at 60 h",6.14
same,pIC50,"[1]; 3D7, read-out: Schizonts Mean IC50 (IC50^8h), 8-h exposure 32–40 hr, 3D7-A10, survival at 60 h",6.07
same,pIC50,[2],6.61
same,peptide levels (hemoglobin catabolism signature),"[3]; 10 × IC50^72h, 2.5 hr, trophozoites",decreased peptide levels
same,Log2(fold changes) 3-phosphoglycerate,"[3]; metabolite 3-phosphoglycerate, log2 fold change",0.2589
same,Log2(fold changes) 4-Pyridoxic acid,"[3]; metabolite 4-Pyridoxic acid, log2 fold change",0.1545
same,Log2(fold changes) 4-aminobutyrate,"[3]; metabolite 4-aminobutyrate, log2 fold change",-0.0143
same,Log2(fold changes) 4-phosphopantetheine,"[3]; metabolite 4-phosphopantetheine, log2 fold change",0.0000
same,Log2(fold changes) 4-phosphopantothenate,"[3]; metabolite 4-phosphopantothenate, log2 fold change",-0.5959
same,Log2(fold changes) 5-aminopentanoic acid,"[3]; metabolite 5-aminopentanoic acid, log2 fold change",0.0000
same,Log2(fold changes) 5-methyl-THF,"[3]; metabolite 5-methyl-THF, log2 fold change",0.0000
same,Log2(fold changes) 5-phosphoribosyl-1-pyrophosphate,"[3]; metabolite 5-phosphoribosyl-1-pyrophosphate, log2 fold change",0.0000
same,Log2(fold changes) 6-phospho-D-gluconate,"[3]; metabolite 6-phospho-D-gluconate, log2 fold change",-0.3071
same,Log2(fold change) HVDD,[3]; metabolite HVDD,-3.1004
same,Log2(fold change) Hydroxyisocaproic acid,[3]; metabolite Hydroxyisocaproic acid,0.0000
same,Log2(fold change) IDP,[3]; metabolite IDP,0.0000
same,Log2(fold change) IMP,[3]; metabolite IMP,-0.4029
same,Log2(fold change) Inositol,[3]; metabolite Inositol,0.0000
same,Log2(fold change) Isopentyl-PP,[3]; metabolite Isopentyl-PP,-0.4741
same,Log2(fold change) L-arginino-succinate,[3]; metabolite L-arginino-succinate,1.0249
same,Log2(fold change) LD,[3]; metabolite LD,0.5039
same,Log2(fold change) Myristoyl/tetradecanoyl-CoA,[3]; metabolite Myristoyl/tetradecanoyl-CoA,0.0000
same,Log2(fold change) N-Acetyl-L-alanine,[3]; metabolite N-Acetyl-L-alanine,-0.5066
same,Log2(fold change) N-acetyl-L-ornithine,[3]; metabolite N-acetyl-L-ornithine,-0.0359
same,Log2(fold change) N-acetyl-glucosamine-1/6-phosphate,[3]; metabolite N-acetyl-glucosamine-1/6-phosphate,-0.2210
same,Log2(fold change) N-acetyl-glutamate,[3]; metabolite N-acetyl-glutamate,-0.3035
same,Log2(fold change) N-acetyl-glutamine,[3]; metabolite N-acetyl-glutamine,2.2691
same,Log2(fold change) N-carbamoyl-L-aspartate,[3]; metabolite N-carbamoyl-L-aspartate,-0.9439
same,Log2(fold change) NAD+,[3]; metabolite NAD+,-0.1377
same,Log2(fold change) NADH,[3]; metabolite NADH,0.2776
same,Log2(fold change) NADP+,[3]; metabolite NADP+,0.1452
same,Log2(fold change) NADPH,[3]; metabolite NADPH,0.1884
same,Log2(fold change) O-acetyl-L-serine,[3]; metabolite O-acetyl-L-serine,-0.0049
same,Log2(fold change) Octoluse 8/1P,[3]; metabolite Octoluse 8/1P,0.3908
same,Log2(fold change) Octoluse Bisphosphate,[3]; metabolite Octoluse Bisphosphate,1.4853
same,Log2(fold change) PD,[3]; metabolite PD,-2.5358
same,Log2(fold change) PE,[3]; metabolite PE,-0.3826
same,Log2(fold change) PEE,[3]; metabolite PEE,-0.0417
same,Log2(fold change) PEEK,[3]; metabolite PEEK,0.3987
same,Log2(fold change) PVNF,[3]; metabolite PVNF,-3.7257
same,Log2(fold change) Pyroglutamic acid,[3]; metabolite Pyroglutamic acid,-0.2992
same,Log2(fold change) Pyrophosphate,[3]; metabolite Pyrophosphate,0.0000
same,Log2(fold change) Ribose-5-phosphate,[3]; metabolite Ribose-5-phosphate,-0.2620
same,Log2(fold change) S-adenosyl-L-homocysteine,[3]; metabolite S-adenosyl-L-homocysteine,0.0103
same,Log2(fold change) S-adenosyl-L-methioninamine,[3]; metabolite S-adenosyl-L-methioninamine,-2.2715
same,Log2(fold change) S-adenosyl-L-methionine,[3]; metabolite S-adenosyl-L-methionine,0.0000
same,Log2(fold change) S-methyl-5'-thioadenosine,[3]; metabolite S-methyl-5'-thioadenosine,1.0471
same,Log2(fold change) SD,[3]; metabolite SD,-1.2290
same,Log2(fold change) SDL,[3]; metabolite SDL,0.0000
same,Log2(fold change) SID,[3]; metabolite SID,-0.4398
same,Log2(fold change) Sedoheptulose bisphosphate,[3]; metabolite Sedoheptulose bisphosphate,1.3696
same,Log2(fold change) Thiamine pyrophosphate,[3]; metabolite Thiamine pyrophosphate,-0.0845
same,Log2(fold changes) UDP-D-glucose,"[3]; metabolite UDP-D-glucose, log2 fold change",0.2535
same,Log2(fold changes) UDP-D-glucuronate,"[3]; metabolite UDP-D-glucuronate, log2 fold change",0.0929
same,Log2(fold changes) UDP-N-acetyl-glucosamine,"[3]; metabolite UDP-N-acetyl-glucosamine, log2 fold change",-0.0110
same,Log2(fold changes) UDP,"[3]; metabolite UDP, log2 fold change",-0.5582
same,Log2(fold changes) UMP,"[3]; metabolite UMP, log2 fold change",-1.0091
same,Log2(fold changes) UTP,"[3]; metabolite UTP, log2 fold change",0.0000
same,Log2(fold change) hydroxyphenylpyruvate,[3]; metabolite hydroxyphenylpyruvate,0.0000
same,Log2(fold change) hydroxyproline/Aminolevulinate,[3]; metabolite hydroxyproline/Aminolevulinate,-0.0313
same,Log2(fold change) hypoxanthine,[3]; metabolite hypoxanthine,0.1226
same,Log2(fold change) indole,[3]; metabolite indole,0.0000
same,Log2(fold change) inosine,[3]; metabolite inosine,0.0977
same,Log2(fold change) isoleucine,[3]; metabolite isoleucine,0.0000
same,Log2(fold change) lactate,[3]; metabolite lactate,-0.2958
same,Log2(fold change) leucine,[3]; metabolite leucine,0.0000
same,Log2(fold change) lysine,[3]; metabolite lysine,-0.5255
same,Log2(fold change) malate,[3]; metabolite malate,-0.2587
same,Log2(fold change) maleic acid,[3]; metabolite maleic acid,-0.3091
same,Log2(fold change) methionine,[3]; metabolite methionine,0.3155
same,Log2(fold change) myo-inositol,[3]; metabolite myo-inositol,-0.2765
same,Log2(fold change) nicotinamide mononucleotide,[3]; metabolite nicotinamide mononucleotide,-0.3204
same,Log2(fold change) nicotinate,[3]; metabolite nicotinate,-0.1938
same,Log2(fold change) ornithine,[3]; metabolite ornithine,0.1211
same,Log2(fold change) orotate,[3]; metabolite orotate,-0.0965
same,Log2(fold change) orotidine-5'-phosphate,[3]; metabolite orotidine-5'-phosphate,-2.6245
same,Log2(fold change) oxaloacetate,[3]; metabolite oxaloacetate,-0.0776
same,Log2(fold change) p-aminobenzoate,[3]; metabolite p-aminobenzoate,0.0000
same,Log2(fold change) p-hydroxybenzoate,[3]; metabolite p-hydroxybenzoate,0.0000
same,Log2(fold change) pantothenate,[3]; metabolite pantothenate,0.1007
same,Log2(fold change) phenylalanine,[3]; metabolite phenylalanine,-0.2555
same,Log2(fold change) phenylpyruvate,[3]; metabolite phenylpyruvate,0.0000
same,Log2(fold change) phosphoenolpyruvate,[3]; metabolite phosphoenolpyruvate,0.7161
same,Log2(fold change) prephenate,[3]; metabolite prephenate,-0.9019
same,Log2(fold change) proline,[3]; metabolite proline,-0.2246
same,Log2(fold change) pyridoxine,[3]; metabolite pyridoxine,-0.1003
same,Log2(fold change) pyruvate,[3]; metabolite pyruvate,-0.3220
same,Log2(fold change) riboflavin,[3]; metabolite riboflavin,0.6538
same,Log2(fold change) ribose,[3]; metabolite ribose,0.3285
same,Log2(fold change) ribose-phosphate,[3]; metabolite ribose-phosphate,-0.4272
same,Log2(fold change) ribulose-5-phosphate,[3]; metabolite ribulose-5-phosphate,-0.4317
same,Log2(fold change) serine,[3]; metabolite serine,0.1307
same,Log2(fold change) sn-glycerol-3-phosphate,[3]; metabolite sn-glycerol-3-phosphate,0.0813
same,Log2(fold change) succinate/Methylmalonic acid,[3]; metabolite succinate/Methylmalonic acid,-0.0916
same,Log2(fold change) succinyl-CoA/methylmalonyl-CoA,[3]; metabolite succinyl-CoA/methylmalonyl-CoA,0.0000
same,Log2(fold change) taurine,[3]; metabolite taurine,0.1233
same,Log2(fold change) thiamine,[3]; metabolite thiamine,-0.6378
same,Log2(fold change) threonine/homoserine,[3]; metabolite threonine/homoserine,-0.0132
same,Log2(fold change) thymidine,[3]; metabolite thymidine,0.0000
same,Log2(fold changes) thymine,"[3]; metabolite thymine, log2 fold change",0.0000
same,Log2(fold changes) trehalose-6-Phosphate,"[3]; metabolite trehalose-6-Phosphate, log2 fold change",0.0000
same,Log2(fold changes) tryptophan,"[3]; metabolite tryptophan, log2 fold change",-0.6838
same,Log2(fold changes) tyrosine,"[3]; metabolite tyrosine, log2 fold change",0.0515
same,Log2(fold changes) uridine,"[3]; metabolite uridine, log2 fold change",0.0000
